# Measured values as given in ChEMBL document CHEMBL3297690, “Discovery and development of Janus kinase (JAK) inhibitors for inflammatory diseases” (J Med Chem, 2014).
# Tests used:
# [1] = molecular target: T1, Tyrosine-protein kinase JAK1 (Homo sapiens, UniProt P23458); assay type: cell-based
# [2] = molecular target: T2, Tyrosine-protein kinase JAK2 (Homo sapiens, UniProt O60674)
# [3] = molecular target: T3, Tyrosine-protein kinase JAK3 (Mus musculus, UniProt Q62137); assay type: cell-based
# T3 sequence (Q62137 whole entry): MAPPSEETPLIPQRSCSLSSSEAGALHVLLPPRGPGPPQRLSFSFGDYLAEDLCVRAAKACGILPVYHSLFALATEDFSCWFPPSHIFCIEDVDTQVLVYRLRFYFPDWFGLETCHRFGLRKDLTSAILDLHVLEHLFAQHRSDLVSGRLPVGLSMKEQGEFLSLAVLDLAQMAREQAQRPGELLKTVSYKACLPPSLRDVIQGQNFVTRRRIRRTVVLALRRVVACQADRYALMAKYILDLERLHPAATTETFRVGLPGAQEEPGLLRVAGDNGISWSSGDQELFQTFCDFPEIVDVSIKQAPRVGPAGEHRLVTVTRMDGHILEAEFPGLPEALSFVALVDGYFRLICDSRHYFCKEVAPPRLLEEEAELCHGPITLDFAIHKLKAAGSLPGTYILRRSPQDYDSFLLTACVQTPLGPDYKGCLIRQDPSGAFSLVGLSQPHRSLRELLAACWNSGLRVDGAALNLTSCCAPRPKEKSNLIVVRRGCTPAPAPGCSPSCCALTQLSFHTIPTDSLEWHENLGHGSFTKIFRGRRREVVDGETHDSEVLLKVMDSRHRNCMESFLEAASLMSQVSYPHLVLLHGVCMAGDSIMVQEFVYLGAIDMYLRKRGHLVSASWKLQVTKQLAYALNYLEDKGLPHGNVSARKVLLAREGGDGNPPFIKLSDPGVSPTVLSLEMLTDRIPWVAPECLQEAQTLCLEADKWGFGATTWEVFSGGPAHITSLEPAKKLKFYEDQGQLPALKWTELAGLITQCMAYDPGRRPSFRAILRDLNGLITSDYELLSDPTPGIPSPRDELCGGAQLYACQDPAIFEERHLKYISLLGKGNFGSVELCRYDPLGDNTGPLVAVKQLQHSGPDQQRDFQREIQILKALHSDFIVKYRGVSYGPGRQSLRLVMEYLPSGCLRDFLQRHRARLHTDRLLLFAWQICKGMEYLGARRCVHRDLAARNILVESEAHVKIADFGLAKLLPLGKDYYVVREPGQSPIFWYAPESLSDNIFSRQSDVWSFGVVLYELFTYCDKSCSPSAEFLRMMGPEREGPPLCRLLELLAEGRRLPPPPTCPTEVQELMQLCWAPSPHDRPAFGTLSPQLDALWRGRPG
# [4] = molecular target: T1, Tyrosine-protein kinase JAK1
# [5] = molecular target: T2, Tyrosine-protein kinase JAK2; remark: listed apart in the source
# [6] = molecular target: T2, Tyrosine-protein kinase JAK2; assay type: cell-based, Blood, CD34+ cell
# T2 sequence (O60674 whole entry): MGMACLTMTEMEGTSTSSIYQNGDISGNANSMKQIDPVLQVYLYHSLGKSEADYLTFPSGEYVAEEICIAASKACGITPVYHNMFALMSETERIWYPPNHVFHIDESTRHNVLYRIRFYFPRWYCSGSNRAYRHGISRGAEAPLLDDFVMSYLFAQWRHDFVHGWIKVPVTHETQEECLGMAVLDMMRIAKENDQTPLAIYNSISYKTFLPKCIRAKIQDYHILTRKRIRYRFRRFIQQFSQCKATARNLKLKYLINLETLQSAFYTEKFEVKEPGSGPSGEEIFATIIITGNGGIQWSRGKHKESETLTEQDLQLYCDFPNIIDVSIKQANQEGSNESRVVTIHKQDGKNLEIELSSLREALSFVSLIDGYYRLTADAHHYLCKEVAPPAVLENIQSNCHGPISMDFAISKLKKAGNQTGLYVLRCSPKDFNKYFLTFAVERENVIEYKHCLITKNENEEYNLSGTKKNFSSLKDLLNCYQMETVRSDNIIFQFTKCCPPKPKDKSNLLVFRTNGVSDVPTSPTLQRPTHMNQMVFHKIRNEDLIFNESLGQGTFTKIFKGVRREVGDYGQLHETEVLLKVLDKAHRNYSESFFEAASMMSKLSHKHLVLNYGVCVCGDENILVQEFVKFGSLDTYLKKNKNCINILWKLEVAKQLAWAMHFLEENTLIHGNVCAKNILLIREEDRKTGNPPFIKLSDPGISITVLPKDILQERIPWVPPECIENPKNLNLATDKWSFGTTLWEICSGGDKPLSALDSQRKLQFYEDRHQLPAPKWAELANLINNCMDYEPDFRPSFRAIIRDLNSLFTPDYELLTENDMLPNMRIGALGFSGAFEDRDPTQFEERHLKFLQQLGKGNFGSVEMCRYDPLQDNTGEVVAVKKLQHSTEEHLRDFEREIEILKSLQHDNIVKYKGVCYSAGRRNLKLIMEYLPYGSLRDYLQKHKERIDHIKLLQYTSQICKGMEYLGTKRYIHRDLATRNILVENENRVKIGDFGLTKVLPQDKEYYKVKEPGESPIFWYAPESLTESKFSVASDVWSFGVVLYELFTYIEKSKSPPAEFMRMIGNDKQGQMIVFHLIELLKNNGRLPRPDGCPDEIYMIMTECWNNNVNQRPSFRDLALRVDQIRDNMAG
# T1 sequence (P23458 whole entry): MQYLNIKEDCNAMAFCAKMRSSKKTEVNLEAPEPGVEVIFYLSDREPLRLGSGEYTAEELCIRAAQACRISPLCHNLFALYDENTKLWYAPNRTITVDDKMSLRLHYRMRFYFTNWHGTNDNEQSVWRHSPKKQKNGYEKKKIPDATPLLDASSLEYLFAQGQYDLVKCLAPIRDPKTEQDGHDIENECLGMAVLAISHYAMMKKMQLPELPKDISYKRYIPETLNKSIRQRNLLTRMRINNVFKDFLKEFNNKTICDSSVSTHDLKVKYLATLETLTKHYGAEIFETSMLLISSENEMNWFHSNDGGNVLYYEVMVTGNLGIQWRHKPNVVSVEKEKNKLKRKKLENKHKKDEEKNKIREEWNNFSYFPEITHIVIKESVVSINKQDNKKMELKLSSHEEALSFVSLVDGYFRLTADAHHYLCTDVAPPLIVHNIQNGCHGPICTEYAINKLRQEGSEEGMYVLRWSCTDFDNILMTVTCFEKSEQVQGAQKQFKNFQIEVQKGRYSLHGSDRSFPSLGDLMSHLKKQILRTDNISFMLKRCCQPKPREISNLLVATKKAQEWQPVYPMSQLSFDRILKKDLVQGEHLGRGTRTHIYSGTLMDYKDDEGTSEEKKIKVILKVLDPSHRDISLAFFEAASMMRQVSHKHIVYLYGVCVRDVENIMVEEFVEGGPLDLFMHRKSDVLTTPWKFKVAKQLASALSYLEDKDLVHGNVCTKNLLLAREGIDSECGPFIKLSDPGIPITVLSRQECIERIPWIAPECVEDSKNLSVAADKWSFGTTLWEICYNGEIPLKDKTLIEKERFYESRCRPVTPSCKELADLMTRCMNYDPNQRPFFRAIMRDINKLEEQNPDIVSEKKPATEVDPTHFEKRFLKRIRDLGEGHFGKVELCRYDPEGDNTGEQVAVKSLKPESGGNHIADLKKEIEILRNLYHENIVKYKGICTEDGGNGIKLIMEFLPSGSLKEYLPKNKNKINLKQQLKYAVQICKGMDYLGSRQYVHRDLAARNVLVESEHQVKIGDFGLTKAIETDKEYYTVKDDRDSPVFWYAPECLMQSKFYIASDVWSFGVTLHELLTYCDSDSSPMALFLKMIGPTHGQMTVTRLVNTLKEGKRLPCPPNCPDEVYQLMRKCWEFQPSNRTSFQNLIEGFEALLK
smiles,measurement,setting,value
CC[C@@](C)(Nc1ccnc(-c2c[nH]c3ncccc23)n1)C(=O)NCC(F)(F)F [DECERNOTINIB],IC50,[1],50 nM
same,IC50,[2],24 nM
same,IC50,[3],50 nM
same,IC50,[4],13.2 nM
same,IC50,[5],619 nM
same,Ki,[5],13 nM
same,IC50,[6],> 10 µM
